Molecules are shown by their SMILES.

This is an account of results in ChEMBL document CHEMBL2073866, “Cellular pharmacokinetic aspects of reversal effect of itraconazole on P-glycoprotein-mediated resistance of anticancer drugs” (Biol Pharm Bull, 1999).

The target of data set [1] is T1, ATP-dependent translocase ABCB1 (Homo sapiens, UniProt P08183). Put plainly: TP_TRANSPORTER: transepithelial transport (basal to apical) in MDR1-expressing LLC-PK1 cells. The format is functional, cell-based. To be noted: pig.
T1 sequence (P08183 whole entry): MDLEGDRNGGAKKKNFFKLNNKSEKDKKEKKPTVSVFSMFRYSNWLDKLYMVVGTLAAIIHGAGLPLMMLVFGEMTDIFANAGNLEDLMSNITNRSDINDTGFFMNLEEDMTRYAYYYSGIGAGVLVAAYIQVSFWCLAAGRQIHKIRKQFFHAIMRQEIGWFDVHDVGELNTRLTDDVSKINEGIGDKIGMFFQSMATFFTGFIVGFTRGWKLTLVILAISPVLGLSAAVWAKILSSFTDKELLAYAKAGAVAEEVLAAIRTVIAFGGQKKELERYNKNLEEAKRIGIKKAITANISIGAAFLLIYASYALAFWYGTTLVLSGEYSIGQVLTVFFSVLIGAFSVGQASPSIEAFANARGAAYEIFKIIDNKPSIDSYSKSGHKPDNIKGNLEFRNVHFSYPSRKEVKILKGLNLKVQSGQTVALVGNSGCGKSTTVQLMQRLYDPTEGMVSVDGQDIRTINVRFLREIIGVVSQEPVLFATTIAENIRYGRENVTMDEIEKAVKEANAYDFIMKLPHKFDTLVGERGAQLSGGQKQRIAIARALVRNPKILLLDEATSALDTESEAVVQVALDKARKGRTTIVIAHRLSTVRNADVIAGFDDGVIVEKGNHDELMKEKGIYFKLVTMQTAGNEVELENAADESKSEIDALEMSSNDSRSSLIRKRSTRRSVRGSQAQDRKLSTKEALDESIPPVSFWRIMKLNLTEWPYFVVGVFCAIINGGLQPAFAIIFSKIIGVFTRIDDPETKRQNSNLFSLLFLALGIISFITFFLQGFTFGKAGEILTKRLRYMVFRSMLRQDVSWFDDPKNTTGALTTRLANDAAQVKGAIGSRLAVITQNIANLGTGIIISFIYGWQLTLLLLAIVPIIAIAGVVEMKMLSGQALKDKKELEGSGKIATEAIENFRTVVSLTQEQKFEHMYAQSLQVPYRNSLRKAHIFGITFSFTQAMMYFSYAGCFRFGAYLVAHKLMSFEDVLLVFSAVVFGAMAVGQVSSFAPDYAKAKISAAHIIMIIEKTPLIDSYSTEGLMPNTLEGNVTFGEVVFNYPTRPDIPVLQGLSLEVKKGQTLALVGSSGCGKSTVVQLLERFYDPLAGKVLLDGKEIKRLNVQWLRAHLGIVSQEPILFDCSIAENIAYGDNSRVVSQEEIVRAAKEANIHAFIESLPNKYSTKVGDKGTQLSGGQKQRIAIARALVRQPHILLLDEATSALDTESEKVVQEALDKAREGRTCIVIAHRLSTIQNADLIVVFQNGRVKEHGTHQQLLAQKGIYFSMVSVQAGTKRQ
Data set [2] has as its target T1, ATP-dependent translocase ABCB1. Kind of data set: TP_TRANSPORTER: inhibition of Azidopine photoaffinity labelling (Azidopine: 0.4 uM, Daunorubicin: 400 uM) in membranes from MDR1-expressing LLC-PK1 cells. To be noted: pig, llc-pk1, 400 µM. The format is functional, cell membranes, Membrane.
Data set [3] has the same target. Kind of data set: TP_TRANSPORTER: inhibition of Azidopine photoaffinity labelling (Azidopine: 0.4 uM, Doxorubicin: 400 uM) in membranes from MDR1-expressing LLC-PK1 cells. The format is functional, cell membranes, Membrane. To be noted: pig, llc-pk1, 400 µM.
Data set [4] has the same target. Put plainly: TP_TRANSPORTER: inhibition of Vinblastine transepithelial transport (basal to apical) (Vinblastine: 0.1 uM, Itraconazole: 100 uM) in MDR1-expressing LLC-PK1 cells. The format is functional, cell-based. To be noted: pig, llc-pk1, 100 µM.
Data set [5] has the same target. Put plainly: TP_TRANSPORTER: inhibition of Digoxin transepithelial transport (basal to apical) (Digoxin: 0.1 uM, Itraconazole: 100 uM) in MDR1-expressing LLC-PK1 cells. Type of data set: functional, cell-based. To be noted: pig, llc-pk1, 100 µM.
Data set [6] shares this target. Kind of data set: TP_TRANSPORTER: inhibition of Doxorubicin transepithelial transport (basal to apical) (Doxorubicin: 0.1 uM, Itraconazole: 100 uM) in MDR1-expressing LLC-PK1 cells. The format is functional, cell-based. Conditions: pig, llc-pk1, 100 µM.
The target is the same in data set [7]. Kind of data set: TP_TRANSPORTER: inhibition of Azidopine photoaffinity labelling in membranes from MDR1-expressing LLC-PK1 cells. The format is functional, cell membranes, Membrane. To be noted: pig.
Data set [8] has the same target. Kind of data set: TP_TRANSPORTER: inhibition of Azidopine photoaffinity labelling (Azidopine: 0.4 uM, Vinblastine: 400 uM) in membranes from MDR1-expressing LLC-PK1 cells. Type of data set: functional, cell membranes, Membrane. To be noted: pig, llc-pk1, 400 µM.

With `COc1cccc2c1C(=O)c1c(O)c3c(c(O)c1C2=O)C[C@@](O)(C(C)=O)C[C@@H]3O[C@H]1C[C@H](N)[C@H](O)[C@H](C)O1` [DAUNORUBICIN], the Activity result is “substrate [+]” in data set [1] and “inhibitor [+]” in data set [2].

For `COc1cccc2c1C(=O)c1c(O)c3c(c(O)c1C2=O)C[C@@](O)(C(=O)CO)C[C@@H]3O[C@H]1C[C@H](N)[C@H](O)[C@H](C)O1` [DOXORUBICIN], the Activity result in data set [3] is “inhibitor [+]”.

As for `CCC(C)n1ncn(-c2ccc(N3CCN(c4ccc(OCC5COC(Cn6cncn6)(c6ccc(Cl)cc6Cl)O5)cc4)CC3)cc2)c1=O` (stereo not drawn) [ITRACONAZOLE], the Activity result in data set [4], in data set [5], in data set [6] and in data set [7] was “inhibitor [+]” throughout.

In the case of `CC[C@]1(O)C[C@@H]2CN(CCc3c([nH]c4ccccc34)[C@@](C(=O)OC)(c3cc4c(cc3OC)N(C)[C@H]3[C@@](O)(C(=O)OC)[C@H](OC(C)=O)[C@]5(CC)C=CCN6CC[C@]43[C@@H]65)C2)C1` [VINBLASTINE], in data set [8], the Activity result was “inhibitor [+]”.
